Results as given in patent US12617773B2, “Azetidin-3-ylmethanol derivatives as CCR6 receptor modulators” (Idorsia Pharmaceuticals Ltd, priority 2020, dated 2026).

Target: T1, human CCR6 (Homo sapiens, UniProt P51684)
T1 construct: expressed in transfected cells; host or cells: HEK-293
T1 sequence (P51684 1-374): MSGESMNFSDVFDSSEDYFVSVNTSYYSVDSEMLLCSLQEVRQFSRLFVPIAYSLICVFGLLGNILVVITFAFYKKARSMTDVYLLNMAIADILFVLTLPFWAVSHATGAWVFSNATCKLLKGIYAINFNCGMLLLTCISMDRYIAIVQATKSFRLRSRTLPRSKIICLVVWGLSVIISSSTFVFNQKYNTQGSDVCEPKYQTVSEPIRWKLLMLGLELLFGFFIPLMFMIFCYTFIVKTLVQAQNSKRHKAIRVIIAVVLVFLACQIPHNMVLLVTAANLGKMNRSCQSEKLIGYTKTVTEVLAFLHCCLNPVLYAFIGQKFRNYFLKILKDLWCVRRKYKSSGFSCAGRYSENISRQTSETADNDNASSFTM
Experiment: FLIPR assay (inhibition of CCL20-induced calcium signal)
Type: cell-based
Settings: HEK-293 cells expressing human CCR6; mean values where determined several times; read-out: FLIPR IC50
Procedure: FLIPR assay: The bioactivity of compounds is tested in a fluorometric imaging plate reader (FLIPR: Molecular Devices) using engineered HEK-293 cells expressing the human CCR6 (GenBank: AY242126). Frozen cells are plated on Poly-L-Lysine precoated 384-well plates 2 days prior to bioassay in DMEM medium supplemented with 10% FCS and 1% Penicillin-Streptomycin. […] This buffer, but lacking the dye, is also used for washing and compound dilution steps (assay buffer). Cells are washed free of excess dye with a wash-station (Biotek), leaving 40 microliter of assay buffer at the end. Cells were incubated for 15 minutes at room temperature in the dark, before adding compounds. Stock solutions of test compounds are made up at a concentration of 10 mM in DMSO, and serially diluted first in DMSO and then transferred in assay buffer to concentrations required for inhibition dose response curves. After a 45-minute incubation period in assay buffer at room temperature, 10 microliters of each compound dilution are transferred from a compound plate to the plate containing the recombinant cells in the FLIPR instrument according to the manufacturer's instructions. After cells and compounds were preincubated for 30 minutes at room temperature in the dark, 10 microliter agonist CCL20 (Peprotech) at a final concentration of 10 nM is added, again using the FLIPR instrument. Changes in fluorescence are monitored before and after addition of the test compounds and agonist. Emission peak values above base level after CCL20 addition are exported after base line subtraction.
The calculated IC50 values may fluctuate depending on the daily assay performance. Fluctuations of this kind are known to those skilled in the art.

SMILES	IC50 [nM]
COc1cc(C(C)(O)CCc2cncc([C@@](O)(c3ccc(C(C)C)cc3)C3(C)CN(C)C3)c2)ncn1 (stereo partly drawn) [Example 411]	86.3
COC[C@@H]1CN(c2cncc([C@@](O)(c3ccc(C(C)C)cc3)C3(C)CN(C)C3)c2)CCO1 [Example 237]	217
CC(C)c1ccc([C@](O)(c2cncc(-c3noc([C@@H]4CNC4=O)n3)c2)C2(C)CN(C)C2)cc1 [Example 364]	142
CC(C)c1ccc([C@](O)(c2cncc(-c3noc(C4CC(=O)N(C(C)C)C4)n3)c2)C2(C)CN(C)C2)cc1 (single isomer, unassigned) [Example 513]	101
CC(C)c1ccc([C@](O)(c2cncc(C#CC(C)(C)S(C)(=O)=O)c2)C2(C)CN(C)C2)cc1 [Example 605]	78.6
CCN1CC(C)([C@](O)(c2ccc(C(C)C)cc2)c2cncc(-c3noc(C4CCN(C(C)=O)CC4)n3)c2)C1 [Example 585]	116
CCC(C)(C)c1ccc([C@](O)(c2cncc(-c3noc(C(C)(C)O)n3)c2)C2(C)CN(C)C2)cc1 [Example 551]	135
CC(C)c1ccc([C@](O)(c2cncc(CCC(C)(O)c3ccn(C4CC4)n3)c2)C2(C)CN(C)C2)cc1 (stereo partly drawn) [Example 644]	147
COC1(c2noc(-c3cncc([C@@](O)(c4ccc(C5CC5)cc4)C4(C)CN(C)C4)c3)n2)CCOCC1 [Example 95, (R)-(4-Cyclopropyl-phenyl)-(1,3-dimethyl-azetidin-3-yl)-{5-[3-(4-methoxy-tetrahydro-pyran-4-yl)-[1,2,4]oxadiazol-5-yl]-pyridin-3-yl}-methanol]	196
CC(C)c1ccc([C@](O)(c2cncc(-c3noc(CC4(NC(=O)C5CCOCC5)CC4)n3)c2)C2(C)CN(C)C2)cc1 [Example 461]	384
C=C(CCO)c1cncc([C@@](O)(c2ccc(C(C)C)cc2)C2(C)CN(C)C2)c1 [Example 305, 3-{5-[(R)-(1,3-Dimethyl-azetidin-3-yl)-hydroxy-(4-isopropyl-phenyl)-methyl]-pyridin-3-yl}-but-3-en-1-ol]	121
CC(C)c1ccc([C@](O)(c2cnnc(N3CC(c4ccccn4)CC3=O)c2)C2(C)CN(C)C2)cc1 (stereo partly drawn) [Example 441]	118
CC(C)c1ccc([C@](O)(c2cncc(C3CC3C(C)(C)O)c2)C2(C)CN(C)C2)cc1 (stereo partly drawn) [Example 328, 2-(2-{5-[(R)-(1,3-Dimethyl-azetidin-3-yl)-hydroxy-(4-isopropyl-phenyl)-methyl]-pyridin-3-yl}-cyclopropyl)-propan-2-ol]	187
CC(C)c1ccc([C@](O)(c2cncc(C#CC(C)(O)c3ccn(C)n3)c2)C2(C)CN(C)C2)cc1 (single isomer, unassigned) [Example 404]	164
CC(C)c1ccc([C@](O)(c2cncc(CCC(C)(C)N3CCCC3=O)c2)C2(C)CN(C)C2)cc1 [Example 639]	96.6
CC(C)NC(=O)OCc1cncc([C@@](O)(c2ccc(C(C)C)cc2)C2(C)CN(C)C2)c1 [Example 325, Isopropyl-carbamic acid 5-[(R)-(1,3-dimethyl-azetidin-3-yl)-hydroxy-(4-isopropyl-phenyl)-methyl]-pyridin-3-ylmethyl ester]	595
CC(C)c1ccc([C@](O)(c2cncc(N3CCC(O)(C(F)(F)F)C3)c2)C2(C)CN(C)C2)cc1 (stereo partly drawn) [Example 179]	64.5
CC(C)c1ccc([C@](O)(c2cncc(CC(F)(F)CO)c2)C2(C)CN(C)C2)cc1 [Example 321, 3-{5-[(R)-(1,3-Dimethyl-azetidin-3-yl)-hydroxy-(4-isopropyl-phenyl)-methyl]-pyridin-3-yl}-2,2-difluoro-propan-1-ol]	273
CC(=O)N1CCC[C@]1(C)C#Cc1cncc([C@@](O)(c2ccc(C(C)C)cc2)C2(C)CN(C)C2)c1 [Example 596]	117
COc1ccc(C(O)(c2ccc(OC(F)(F)F)cc2)C2(C)CN(C)C2)cn1 (stereo not drawn) [Example 146, (1,3-Dimethyl-azetidin-3-yl)-(6-methoxy-pyridin-3-yl)-(4-trifluoromethoxy-phenyl)-methanol]	309
CC(C)c1ccc([C@](O)(c2cncc(-c3nc(C4CCOCC4)no3)c2)C2(C)CN(C)C2)cc1 [Example 88]	98.4
CC(C)c1ccc([C@](O)(c2cncc(-c3noc([C@H]4CCC(=O)N4)n3)c2)C2(C)CN(C)C2)cc1 [Example 360]	292
CC(=O)N1CCC(c2cnc(-c3cncc([C@@](O)(c4ccc(C(C)C)cc4)C4(C)CN(C)C4)c3)nc2)CC1 [Example 685, 1-[4-(2-{5-[(R)-(1,3-Dimethyl-azetidin-3-yl)-hydroxy-(4-isopropyl-phenyl)-methyl]-pyridin-3-yl}-pyrimidin-5-yl)-piperidin-1-yl]-ethanone]	242
CC(C)C(=O)NC(C)(C)Cc1nc(-c2cncc([C@@](O)(c3ccc(C(C)C)cc3)C3(C)CN(C)C3)c2)no1 [Example 467]	129
CC1CCC(c2cncc([C@@](O)(c3ccc(C(C)C)cc3)C3(C)CN(C)C3)c2)O1 (stereo partly drawn) [Example 319]	94.4
CC(C)c1ccc([C@](O)(c2cncc([C@@H]3CCC(C)(O)C3)c2)C2(C)CN(C)C2)cc1 (single isomer, unassigned) [Example 297]	93.5
CC(=O)N1CCC(c2nc(-c3cncc(C(O)(c4ccc(CC(C)(C)C)cc4)C4(C)CN(C)C4)c3)no2)CC1 (stereo not drawn) [Example 565]	116
CC(C)c1ccc([C@](O)(c2cncc(-c3noc(C4CCN(C(=O)CC5COC5)CC4)n3)c2)C2(C)CN(C)C2)cc1 [Example 474, 1-[4-(3-{5-[(R)-(1,3-Dimethyl-azetidin-3-yl)-hydroxy-(4-isopropyl-phenyl)-methyl]-pyridin-3-yl}-[1,2,4]oxadiazol-5-yl)-piperidin-1-yl]-2-oxetan-3-yl-ethanone]	121

Compounds with a lower IC50, results first:

IC50 [nM]	SMILES
14.1	CC(C)c1ccc([C@](O)(c2cncc(C#CC(C)(O)c3cc(C(F)(F)F)ncn3)c2)C2(C)CN(C)C2)cc1 (stereo partly drawn) [Example 632]
54.9	COC(=O)N1CCC(c2nc(-c3cncc([C@@](O)(c4ccc(C(C)C)cc4)C4(C)CN(C)C4)c3)no2)CC1 [Example 378]
62.5	CC(C)c1ccc([C@](O)(c2cncc(-c3noc(C(C)(C)N4CCOCC4)n3)c2)C2(C)CN(C)C2)cc1 [Example 346]
36.2	CCCN1CC(C)([C@](O)(c2ccc(OC(F)(F)F)cc2)c2cncc(N3CCCC3)c2)C1 [Example 4]
39.5	CC(=O)N1CCC(C)(C#Cc2cncc([C@@](O)(c3ccc(C(C)C)cc3)C3(C)CN(C)C3)c2)CC1 [Example 602]
60.4	CC(C)c1ccc([C@](O)(c2cncc(N3CC(C4CC4)CC3=O)c2)C2(C)CN(C)C2)cc1 (stereo partly drawn) [Example 218]
41	CC(C)c1ccc([C@](O)(c2cncc(-c3noc(C4CCN(S(=O)(=O)C5CCCC5)CC4)n3)c2)C2(C)CN(C)C2)cc1 [Example 386]
48.9	COCCOc1cc([C@@](O)(c2ccc(C(C)C)cc2)C2(C)CN(C)C2)ccn1 [Example 278, (S)-(1,3-Dimethyl-azetidin-3-yl)-(4-isopropyl-phenyl)-[2-(2-methoxy-ethoxy)-pyridin-4-yl]-methanol]
23.9	CC(C)c1ccc([C@](O)(c2cncc(C3CCN(C(=O)OC(C)(C)C)CC3)c2)C2(C)CN(C)C2)cc1 [Example 312, 5-[(R)-(1,3-Dimethyl-azetidin-3-yl)-hydroxy-(4-isopropyl-phenyl)-methyl]-3′,4′,5′,6′-tetrahydro-2′H-[3,4′]bipyridinyl-1′-carboxylic acid tert-butyl ester]
14.8	CC(C)c1ccc([C@](O)(c2cncc(C#CC(C)(O)C(F)(F)F)c2)C2(C)CN(C)C2)cc1 (stereo partly drawn) [Example 587]
61.1	CC(C)c1ccc([C@](O)(c2cncc(-c3noc(C4CC(=O)N(C(C)C)C4)n3)c2)C2(C)CN(C)C2)cc1 (single isomer, unassigned) [Example 512]
48.6	CN1CC(C)([C@](O)(c2ccc(C3CC3)cc2)c2cncc(N3CCCC3)c2)C1 [Example 310]
57.8	CC(=O)N1CCC(c2nc(-c3cncc([C@@](O)(c4ccc(C(C)C)cc4)C4(C)CN(C5CC5)C4)c3)no2)CC1 [Example 450]
42.8	CC(C)c1ccc(C(O)(c2cncc(C3CC3)c2)C2(C)CN(C)C2)cc1 (stereo not drawn) [Example 287]
9.06	CC(C)c1ccc(C(O)(c2cncc(CCC(C)(O)c3ccccc3)c2)C2(C)CN(C)C2)cc1 (stereo not drawn) [Example 60]
43.3	CC(C)C[C@H]1CC(=O)N(c2cncc([C@@](O)(c3ccc(C(C)C)cc3)C3(C)CN(C)C3)c2)C1 [Example 217]
55	Cc1cccc(C(C)(O)C#Cc2cncc([C@@](O)(c3ccc(C4(C)CC4)cc3)C3(C)CN(C)C3)c2)n1 (stereo partly drawn) [Example 655]
